Values joined by “and” are separate entries in the source; they are usually repeats but may differ in a detail not shown here. Equal entries are not always repeated.
Assays:
[1] = tested on: Staphylococcus aureus ATCC 25923; assay: Microdilution broth susceptibility test, S. aureus reference strain; details: for activity at 100 µM: read-out: S. aureus microbial growth
Description: The in vitro antimicrobial activity of the isatin derivatives was evaluated by a microdilution broth method in accordance with the guidelines provided by a number of international committees, such as The Clinical Laboratory Standards Institute (CLSI) in the U.S. or The European Committee on Antimicrobial Susceptibility Testing (EUCAST) in Europe reference bacterial strains, including Staphylococcus aureus (ATCC 25923) and Escherichia coli (ATCC 25922) and Candida albicans (ATCC 10231), were purchased from the American Type Culture Collection (ATCC); they were routinely cultured in 5% sheep blood agar plate and in Sabauraud dextrose agar, respectively, at 37 °C. Clinical isolates, identified by MALDI-TOF MS (Bruker Daltonik, GmbH, Bremen, Germany), were profiled for their antibiotic susceptibility by using the Vitek2 semiautomated system (bioMerieux, Craponne, France) and according to EUCAST guidelines [EUCAST: The European Committee on Antimicrobial Susceptibility Testing. Breakpoint tables for interpretation of MICs and zone diameters. Version 12, 2022, http://www.eucast.org (accessed on 1 January 2022)].
Microbial inocula were prepared at 0.5 McFarland in PBS and, subsequently, bacterial suspensions were diluted 1:200 in Mueller–Hinton broth (Sigma-Aldrich, St. Louis, MO, USA), while fungal inoculum was diluted 1:20 in RPMI-1640 medium (Gibco®, ThermoFisher Scientific Inc., Waltham, MA, USA), containing glucose 2%, 0.3% levo-glutamine buffered to pH 7.0 with 0.165 M 3-(N-morpholino)propanesulfonic acid (MOPS). A total of 100 µL of these microbial suspensions were introduced in a 96-well microplate and treated with 100 µL of the compound at 100 µM or with two-fold serial dilutions of the compound in the range of 400 µM–3.12 µM. All compounds were previously dissolved in 100% DMSO at a concentration of 20 mM. Experiments included controls used to measure the microbial growth in regular medium (positive control) and to check the background turbidity of the reagents and the sterility of the procedures (negative controls). In addition, microbial growths were assessed in the presence of the DMSO solvent in the range of 0.015–2%. The inoculated plate was incubated at 37 °C for 24 h, and subsequently, the optical density at 630 nm was measured by the Multiskan Ascent microplate reader (Thermo Fisher Scientific Inc., Waltham, MA, USA). […] All the experiments were performed on triplicate in at least two independent assays.

[2] = tested on: Escherichia coli ATCC 25922; assay: Microdilution broth susceptibility test, E. coli reference strain; type: cell-based; details: ATCC25922, 24 h, growth as percentage relative to positive growth control, mean ± SD, read-out: E. coli microbial growth
From the text: (§1) Breakpoint tables for interpretation of MICs and zone diameters.

[3] = tested on: Candida albicans ATCC 10231; assay: Microdilution broth susceptibility test, C. albicans reference strain; type: cell-based; details: for activity at 100 µM: Candida albicans, ATCC10231, 24 h, growth as percentage relative to positive growth control, mean ± SD, read-out: C. albicans microbial growth
From the text: as §1

Vero cells (ATCC CCL-81) = assay: Cytotoxicity test, WST8-based CCK-8 cell viability; parameters: species or system African green monkey; Vero cell proliferation: unit: %; details: 100 µM; for Vero cell proliferation: 48 h, cell viability as percentage relative to untreated controls, mean ± SD
Description: African green monkey kidney cells (Vero ATCC CCL-81) obtained from ATCC were cultured in Eagle’s minimal essential medium (MEM) (Sigma-Aldrich, St. Louis, MO, USA), supplemented with 10% fetal bovine serum (FBS) (Carlo Erba Reagents, Milan, Italy), 100 U/mL penicillin, and 100 µg/mL streptomycin at 37 °C with 5% CO2. For the experiments, the cells were seeded into 96-well plates at 10^4 cells/well and incubated at 37 °C for 24 h. Following washes with PBS, the cell monolayer was incubated with 100 µL of medium containing 100 µM of the derivatives. Both untreated cells and cells incubated with the solvent were included in each experiment as controls. The cell viability was assessed by a WST8-based assay according to the manufacturer’s instructions (CCK-8, Cell Counting Kit-8, Dojindo Molecular Technologies, Rockville, MD, USA). After 48 h of incubation, the culture medium was removed from each well, the monolayer was washed with PBS, and 100 µL of fresh medium containing 10 µL of CCK-8 solution were added. Following 2 h at 37 °C, the absorbance was measured at 450/630 nm; data were calculated as the percentage of the cell viability relative to the untreated controls.

[4] = tested on: S. aureus clinical isolates (MSSA and MRSA); assay: Microdilution broth susceptibility test, S. aureus clinical isolates; type: cell-based; details: Staphylococcus aureus, 10 clinical isolates, read-out: IC50 against S. aureus clinical isolates (range over isolates)
From the text: as §1

[5] = Staphylococcus aureus, ATCC25923, 24 h

SMILES | activity at 100 µM [1, 5] [%] | activity at 100 µM [2] [%] | activity at 100 µM [3] [%] | Cytotoxicity on Vero cells in words (Vero cells (ATCC CCL-81)) | Vero cell proliferation (Vero cells (ATCC CCL-81)) | Antifungal activity against C. albicans in words ([3]; 100 µM (48.93 µg/mL)) | Activity against S. aureus in words ([1]; 100 µM) | Efficacy at the highest tested concentration in words ([1]; 400 µM) | Selectivity of antibacterial activity versus cytotoxicity in words ([1]; S. aureus growth compared with Vero cytotoxicity at 100 µM) | IC50 ([1]; Staphylococcus aureus, ATCC25923, 24 h, read-out: IC50 against S. aureus) | IC50 [4] [µM]
Cc1cc(C)c2c(c1)NC(=O)C2(C1CNc2ccccc21)C1CNc2ccccc21 (stereo not shown) [4e, 4′,6′-dimethyl-[3,3′:3′,3″-terindolin]-2′-one] | 71.2 ± 8.7 | 103 ± 1.4 | 68.8 ± 2.7 | affect Vero cells proliferation | 8.5 ± 0.3 | – | – | – | – | – | –
O=C1Nc2c(Cl)ccc(Cl)c2C1(C1CNc2ccccc21)C1CNc2ccccc21 (stereo not shown) [4f, 4′,7′-dichloro-[3,3′:3′,3″-terindolin]-2′-one] | 75.8 ± 1.8 | 96.9 ± 1.7 | 107 ± 4.2 | affect Vero cells proliferation | 9.8 ± 0.5 | – | – | – | – | – | –
COc1ccc(CN2C(=O)C(C3CNc4ccccc43)(C3CNc4ccccc43)c3cc(OC)ccc32)cc1 (stereo not shown) [4g, 5′-methoxy-1′-(4-methoxybenzyl)-[3,3′:3′,3″-terindolin]-2′-one] | 86.2 ± 5.7 | 100.3 ± 0.7 | 50.6 ± 6.6 | – | 107.9 ± 8.9 | – | – | – | – | – | –
O=C1Nc2cccc(I)c2C1(C1CNc2ccccc21)C1CNc2ccccc21 (stereo not shown) [4h, 4′-iodo-[3,3′:3′,3″-terindolin]-2′-one] | 72.8 ± 6.1 | 82 ± 1.5 | 23.2 ± 2.1 | affect Vero cells proliferation | 10.6 ± 0.3 | significantly reduced the growth of C. albicans | – | – | – | – | –
O=C1Nc2cc(OC(F)(F)F)ccc2C1(C1CNc2ccccc21)C1CNc2ccccc21 (stereo not shown) [4l, 6′-(trifluoromethoxy)-[3,3′:3′,3″-terindolin]-2′-one] | 72 ± 2.2 | 103 ± 1.6 | 93.3 ± 2.1 | – | 8.9 ±0.4 | – | – | – | – | – | –
COc1ccc2c(c1)C(C1(C3CNc4ccc(OC)cc43)C(=O)Nc3cc(OC)c(OC)c(OC)c31)CN2 (stereo not shown) [5d, 4′,5,5′,5″,6′-pentamethoxy-[3,3′:3′,3″-terindolin]-2′-one] | 89.1 ± 7 | 117 ± 1.1 | 120 ± 2 | – | 54.3 ± 0.9 | – | – | – | – | – | –
COc1ccc2c(c1)C(C1(C3CNc4ccc(OC)cc43)C(=O)N(Cc3ccc(Cl)cc3)c3ccccc31)CN2 (stereo not shown) [5m, 1′-(4-chlorobenzyl)-5,5″-dimethoxy-[3,3′:3′,3″-terindolin]-2′-one] | 95.1 ± 3.9 | 113 ± 0.6 | 88.2 ± 5.2 | – | 87.0 ± 5.7 | – | – | – | – | – | –
O=C1Nc2ccccc2C1(c1c(Cl)nc2sccn12)c1c(Cl)nc2sccn12 [6c, 3,3-bis(6-chloroimidazo[2,1-b]thiazol-5-yl)indolin-2-one] | 95.4 ± 2.4 | 117 ± 3.1 | 126 ± 2.1 | – | 92.8 ± 4.8 | – | – | – | – | – | –
COc1ccc(CN2C(=O)C(c3c(Cl)nc4sccn34)(c3c(Cl)nc4sccn34)c3cc(OC)ccc32)cc1 [6g, 3,3-bis(6-chloroimidazo[2,1-b]thiazol-5-yl)-5-methoxy-1-(4-methoxybenzyl)indolin-2-one] | 67.4 ± 8.4 | 73.6 ± 9.1 | 92.4 ± 3.6 | – | 84.3 ± 0.9 | – | – | – | – | – | –
COc1ccc2c(c1)C(c1c(Cl)nc3sccn13)(c1c(Cl)nc3sccn13)C(=O)N2 [6k, 3,3-bis(6-chloroimidazo[2,1-b]thiazol-5-yl)-5-methoxyindolin-2-one] | 43.4 ± 5.6 | 103 ± 2.4 | 104 ± 1.9 | – | 70.9 ± 5.6 | – | highly active | completely inhibit bacterial growth | selective inhibitory property against the Gram-positive strain | 39.1 µg/mL and 80 µM | 73 to 85.3
